Data on one compound can be found in patent US20260144769A1, “4-PHENYLBUTYRATE RESTORED GABA UPTAKE AND REDUCED SEIZURES IN SLC6A1 VARIANT-MEDIATED DISORDERS” (Vanderbilt University, priority 2022, published 2026).

Molecules are shown by their SMILES.

For assay [1], the system named is SLC6A1^+/S295L mice. The experiment in a line: Video-monitoring synchronized EEG recordings, seizure activity. The class given is in vivo, mouse. As to the method:
The working solution was stored at 4° C.
The surgery to implant the EEG head mount and the video-monitoring synchronized EEG recordings were conducted as described by Kristensen et al., Pharmcol. Rev. 63 (3): 585-640 (2011) and Cai et al., Exp. Neurol. 3:112973 (2019).
For recordings, the sampling rate was set at 400 Hz with a pre-amplifier gain of […]. […] EEG recordings were scored blindly by a skilled scorer using the Sirenia Seizure Pro software. A power analysis was performed using the theta frequency band of 5-7 Hz. The 5-7 Hz SWDs band was chosen because it is the mouse correlate of 2-4 Hz SWDs in humans. An average power was calculated using baseline recordings and applied to seizure analysis for treatment recordings. Seizures identified by the software were confirmed using video recordings of the period. The Racine scale was used for seizure identification (Stage 1: mouth/facial movements; Stage 2: head nodding; Stage 3: forelimb clonus; Stage 4: rearing; Stage 5: rearing and falling). The identified SWDs were then confirmed with video monitoring and compared across treated and non-treated recordings. The total seizure events over 48 hrs of EEG recordings were reported.
First, ˜2-month-old mice were implanted with EEG head mounts. After 5-7 days recovery, the mice were treated with a normal saline vehicle for 7 days, and then subject to video monitored EEG recording for 48 hrs. […]

In assay [2] the target is T1, wildtype GAT-1 + GAT-1(E16X) (Rattus norvegicus, UniProt P23978).
T1 construct: expressed in transfected cells; host or cells: HEK293T cells
The experiment in a line: 3H GABA uptake, HEK293T, mixture of wildtype and mutant cDNAs ("heterozygous"). As to conditions: wildtype:E16X cDNAs 1:1; PBA 2 mM, 24 hrs. The class given is cell-based. The procedure:
GABA uptake activity was measured by the high-throughput 3H radio-labeling GABA uptake on a liquid scintillator with QuantaSmart. […] HEK293T cells were transfected with the wildtype or the mutant GAT-1^YFP cDNAs alone for 48 hr. […] HEK293T cells were transfected with the wildtype GAT-1^YFP alone or in mixture of the wildtype or the mutant cDNAs for 48 hr. In the mixed condition, the ratio of the wildtype GAT-1 with pcDNA or the mutant cDNAs are 1:1 with the total cDNA amount of 0.5 μg. […] Both wt and the mutant were normalized to its own DMSO treated conditions. 966 stands for the wildtype treated with CI-966 (50 μM) while 711 stands for NNC-711 (35 μM). (N=4-7 different transfections. In FIG. 4A and FIG. 4B, *P<0.05, **P<0.01, ***p<0.001 vs. wt 0. In FIG. C and FIG. 4D, *P<0.05, **P<0.01, ***p<0.001 vs. its own DMSO treated. In FIG. 4C, ns stands for no significance. One-way analysis of variance (ANOVA) and Newman-Keuls test. Values were expressed as mean±S.E.M.
The plasmid cDNA encoding enhanced yellow fluorescent protein (EYFP)-tagged rat GAT-1 has been previously described. […]
Briefly, cells were cultured in […] dishes for 3 days before the GABA uptake experiment in DMEM with 10% fetal bovine serum and 1% penicillin/streptomycin. […] Glacial acetic acid was added, and lysates were then determined on a liquid scintillator with QuantaSmart. […]

Assay [3] addresses T2, GAT-1 (Rattus norvegicus, UniProt P23978).
T2 construct: EYFP (N); expressed in transfected cells; host or cells: HEK (HEK293T) cells
The experiment in a line: 3H GABA uptake, HEK cells transfected with GAT-1 cDNA with or without PBA (dual therapy). It counts as cell-based. As to the method: In cell models, HEK293T cells were transfected with SLC6A1, SLC6A1(A288V) or SLC6A1(S295L) cDNAs. The live cells were then fluxed and evaluated for GABA uptake with a 3H radiolabeling GABA uptake assay. In order to evaluate gene expression and protein trafficking, total protein from cell lysates were subjected to SDS-PAGE and immunoblotted for GAT-1 and GFP. Gene expression was evaluated at a variety of gene therapy dosages.

Turning to `O=C(O)CCCc1ccccc1` [PBA, 4-phenylbutyric acid], the “total number of 5-7 Hz SWDs over 48 hrs EEG recordings” value in assay [1] (PBA 100 mg/kg, ip, single dose daily, 7 days (vehicle 127.7±34.08)) stood at 33.3±13.02. In addition, the “reduction of seizure burden” value in assay [1] (PBA treatment alone, 1 week) is recorded as around 76%. Besides, the “GABA uptake normalized to its own DMSO treated condition” value in assay [2] amounted to 1.149±0.025. In addition, the “GABA uptake, combined cDNA/PBA treatment vs. cDNA alone” value in assay [3] (0.25 μg GAT-1 cDNA + 2 mM PBA vs. 0.5 μg GAT-1 cDNA alone) is recorded as “No significant difference”. Besides, the “GABA uptake function, dual therapy vs. cDNA treatment alone” value in assay [3] (equal cDNA amount with PBA, variety of cDNA doses in HEK cells) is reported as “greater GABA uptake function at all but one dose size”.
